“And” between values parts separate entries of the source, which are not always exact repeats. Equal entries are not always repeated. Structures can show the parent of a compound that is named as a salt. Where two headings read alike, the source gives them in different places.
Target: T1, canine TRPM8 (Canis lupus familiaris, UniProt Q1A7N1)
T1 construct: expressed in transfected cells
Assay: In Vitro Canine TRPM8 Functional Assay (intracellular Ca2+ fluorescence, icilin activation, HEK293 cells)
Format: cell-based
Conditions: for inhibition at 0.2 µM: individually measured values; for IC50: HEK293 cells expressing canine TRPM8, icilin activation, individually measured values (batches/salt forms), read-out: IC50 (nM), in vitro TRP M8 Activity
Outline: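 HEK293 cells expressing canine TRPM8 loaded with Calcium 3 dye, then stimulated with icilin; intracellular Ca2+ rise read on FLIPR or FDSS. Peak fluorescence minus basal normalized to percent maximal response; IC50 from sigmoidal nonlinear regression of quadruplicate wells.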

[1] = HEK293, 0.2 μM test compound, read-out: % Inh (%) @0.2 μM, in vitro TRP M8 Activity
[2] = HEK293, read-out: % Inh (%) @0.2 μM, in vitro TRP M8 Activity, 0.2 μM test compound

T1 sequence (Q1A7N1 1-1104): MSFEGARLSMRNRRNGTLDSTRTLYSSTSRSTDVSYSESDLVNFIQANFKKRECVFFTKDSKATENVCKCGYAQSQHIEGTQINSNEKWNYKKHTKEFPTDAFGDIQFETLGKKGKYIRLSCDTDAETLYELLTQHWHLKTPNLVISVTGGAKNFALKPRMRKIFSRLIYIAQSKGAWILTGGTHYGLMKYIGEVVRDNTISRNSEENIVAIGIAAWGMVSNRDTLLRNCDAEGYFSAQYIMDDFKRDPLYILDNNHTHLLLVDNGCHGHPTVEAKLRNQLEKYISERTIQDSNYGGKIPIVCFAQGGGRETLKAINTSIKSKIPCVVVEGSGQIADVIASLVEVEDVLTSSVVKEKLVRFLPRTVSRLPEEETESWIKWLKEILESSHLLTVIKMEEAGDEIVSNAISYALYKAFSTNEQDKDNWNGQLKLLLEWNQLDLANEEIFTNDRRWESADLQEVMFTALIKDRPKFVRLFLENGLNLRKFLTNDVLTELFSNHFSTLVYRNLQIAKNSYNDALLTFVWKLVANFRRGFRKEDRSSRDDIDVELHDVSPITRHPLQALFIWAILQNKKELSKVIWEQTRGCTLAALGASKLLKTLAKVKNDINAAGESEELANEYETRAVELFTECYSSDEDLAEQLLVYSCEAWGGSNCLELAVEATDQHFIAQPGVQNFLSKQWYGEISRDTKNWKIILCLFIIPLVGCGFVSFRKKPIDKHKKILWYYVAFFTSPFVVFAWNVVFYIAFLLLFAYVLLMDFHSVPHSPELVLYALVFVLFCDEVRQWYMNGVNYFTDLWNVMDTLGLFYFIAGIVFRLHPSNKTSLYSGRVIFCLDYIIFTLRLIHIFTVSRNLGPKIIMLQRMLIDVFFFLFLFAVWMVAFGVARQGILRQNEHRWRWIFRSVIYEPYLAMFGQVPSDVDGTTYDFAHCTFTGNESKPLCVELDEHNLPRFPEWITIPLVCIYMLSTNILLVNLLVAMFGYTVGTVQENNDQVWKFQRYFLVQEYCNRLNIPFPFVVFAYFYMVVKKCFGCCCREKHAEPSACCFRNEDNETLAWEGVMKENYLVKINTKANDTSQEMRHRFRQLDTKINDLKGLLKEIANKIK

| inhibition at 0.2 µM [1] | IC50 | Structure (SMILES) | inhibition at 0.2 µM [2] |
| --- | --- | --- | --- |
| 99% | 5.4 nM and 8.7 nM | CC(C)(C)c1cc(-c2nc3cc(-c4ccccc4Cl)cc(C(F)(F)F)c3[nH]2)on1 [Compound 141, 2-(3-tert-Butyl-isoxazol-5-yl)-5-(2-chloro-phenyl)-7-trifluoromethyl-1H-benzimidazole hydrochloride] |  |
| 99% | 3.9 nM and 4 nM | CC(C)(C)c1cc(-c2nc3cc(-c4c(F)cccc4C(F)(F)F)cc(C(F)(F)F)c3[nH]2)on1 [Compound 144, 2-(3-tert-Butyl-isoxazol-5-yl)-5-(2-fluoro-6-trifluoromethyl-phenyl)-7-trifluoromethyl-1H-benzimidazole hydrochloride] |  |
| 100% | 12.2 nM and 15 nM | Cn1nc(C(C)(C)C)c(Cl)c1-c1nc2cc(-c3c(F)cccc3C#N)cc(C(F)(F)F)c2[nH]1 [Compound 146, 2-[2-(5-tert-Butyl-4-chloro-2-methyl-2H-pyrazol-3-yl)-7-trifluoromethyl-1H-benzimidazol-5-yl]-3-fluoro-benzonitrile hydrochloride] |  |

Continued, compound first:

| Structure (SMILES) | inhibition at 0.2 µM [1] | IC50 | inhibition at 0.2 µM [2] |
| --- | --- | --- | --- |
| Cc1c(C(C)(C)C)nn(C)c1-c1nc2cc(-c3ccccc3C(F)(F)F)cc(Cl)c2[nH]1 [Compound 135, 2-(5-tert-Butyl-2,4-dimethyl-2H-pyrazol-3-yl)-7-chloro-5-(2-trifluoromethyl-phenyl)-1H-benzimidazole hydrochloride] | 99% | 4 nM and 6.9 nM |  |
| Cc1c(C(C)(C)C)nn(C)c1-c1nc2cc(-c3c(F)cccc3C(F)(F)F)cc(Cl)c2[nH]1 [Compound 137, 2-(5-tert-Butyl-2,4-dimethyl-2H-pyrazol-3-yl)-7-chloro-5-(2-fluoro-6-trifluoromethyl-phenyl)-1H-benzimidazole hydrochloride] | 99% | 3 nM and 4.7 nM |  |
| Cc1c(C(C)(C)C)nn(C)c1-c1nc2cc(-c3c(F)cccc3OC(F)(F)F)cc(Cl)c2[nH]1 [Compound 138, 2-(5-tert-Butyl-2,4-dimethyl-2H-pyrazol-3-yl)-7-chloro-5-(2-fluoro-6-trifluoromethoxy-phenyl)-1H-benzimidazole hydrochloride] | 99% | 7.7 nM and 6.8 nM |  |
| CC(C)(C)c1cc(-c2nc3cc(-c4ccccc4F)cc(C(F)(F)F)c3[nH]2)on1 [Compound 139, 2-(3-tert-Butyl-isoxazol-5-yl)-5-(2-fluoro-phenyl)-7-trifluoromethyl-1H-benzimidazole sodium salt] |  | 5.6 nM and 12 nM | 99% |
| CC(C)(C)c1cc(-c2nc3cc(-c4c(F)cccc4F)cc(C(F)(F)F)c3[nH]2)on1 [Compound 140, 2-(3-tert-Butyl-isoxazol-5-yl)-5-(2,6-difluoro-phenyl)-7-trifluoromethyl-1H-benzimidazole sodium salt] |  | 4.5 nM and 7.4 nM | 100% |
| CC(C)(C)c1cc(-c2nc3cc(-c4ccccc4C(F)(F)F)cc(C(F)(F)F)c3[nH]2)on1 [Compound 142, 2-(3-tert-Butyl-isoxazol-5-yl)-7-trifluoromethyl-5-(2-trifluoromethyl-phenyl)-1H-benzimidazole sodium salt] |  | 3 nM and 3.3 nM | 99% |
| CC(C)(C)c1cc(-c2nc3cc(-c4ccccc4OC(F)(F)F)cc(C(F)(F)F)c3[nH]2)on1 [Compound 143, 2-(3-tert-Butyl-isoxazol-5-yl)-5-(2-trifluoromethoxy-phenyl)-7-trifluoromethyl-1H-benzimidazole sodium salt] |  | 2.5 nM and 3.7 nM | 99% |
| CC(C)(C)c1cc(-c2nc3cc(-c4c(F)cccc4OC(F)(F)F)cc(C(F)(F)F)c3[nH]2)on1 [Compound 145, 2-(3-tert-Butyl-isoxazol-5-yl)-5-(2-fluoro-6-trifluoromethoxy-phenyl)-7-trifluoromethyl-1H-benzimidazole sodium salt] |  | 3.7 nM and 8.1 nM | 100% |

Reference: patent US20120202856A1, “SUBSTITUTED BENZIMDAZOLE DERIVATIVES USEFUL AS TRPM8 RECEPTOR MODULATORS” (priority 2011, published 2012)
